# Data as given in patent US8580738B2, “Methods for treatment of reperfusion injury and other cardiac conditions” (The Board of Regents of the University of Texas System, priority 2007, dated 2013).
# “Also recorded” adds a separate entry of the source. Where two headings read alike, the source gives them in different places. Where no end group is shown, it is not given here.
# Tests used:
# [1] = test system: calcitonin-gene related peptide mRNA in intrinsic cardiac adrenergic cells; assay: CGRP mRNA regulation in isolated rat intrinsic cardiac adrenergic (ICA) cells, RT-PCR / quantitative real-time PCR; type: cell-based; settings: for increase in calcitonin-gene related peptide mRNA (quantitative real-time PCR): isolated rat ICA cells, 60-min treatment, DPDPE 100 nM or epinephrine 1 μmol; for increase in calcitonin-gene related peptide mRNA (quantitative real-time PCR) / effect on calcitonin-gene related peptide mRNA levels: FIG. 3; for effect on calcitonin-gene related peptide mRNA levels: rat ICA cells
# Protocol: 0-h represents immediately after 60-min drug treatment. 6-h and 24-h represent 6 and 24 hrs after 60 min drug treatment, respectively. Epi: epinephrine. UT: DPDPE-untreated.
# RNA load is verified by the amount of GAPDH. Bar graphs are data normalized to their respective GAPDH mRNA.
# [2] = cited from earlier work
# [3] = test system: rat myocardial ischemia-reperfusion model; assay: Rat myocardial ischemia-reperfusion model (30-min LAD occlusion, 4-hr reperfusion), infarct size; type: in vivo; settings: for infarct size: 30-min ischemia, 4-hr reperfusion, drug i.v. before ischemia, saline control 25±3%
# Protocol: Rat MI model is created by 30-min LAD ligation followed by 4-h reperfusion.
# (T+C)H: with high dose of terbutaline 1 mg/kg.
# Experimental Myocardial Ischemia-Reperfusion Model. The rat myocardial ischemia-reperfusion model will be used (Birnbaum et al., 2005; Huang et al., 2007). This model consists of 30 min coronary artery occlusion followed by 4-hr reperfusion.
# Saline (0.5 ml) will be infused to rats serving as control.
# Each antagonist or their combination will be infused 20-min prior to DPDPE infusion. Arterial blood pressure and heart rate will be monitored continuously throughout the experiments.
# [4] = test system: left ventricular systolic function; assay: Left ventricular function by echocardiography after intravenous DPDPE; type: in vivo, rat
# Text: The measurements were obtained from left ventricular short-axis view using echocardiography.
# Intravenous infusion of δ-opioid agonist DPDPE to rats causes sustained increase in left ventricular systolic function as reflected by increased left ventricular fractional shortening and ejection fraction (FIG. 10). The fractional shortening and ejection fraction are two clinical parameters used for evaluating left ventricular function assayed by echocardiograph. This positive inotropic effect elicited by DPDPE sustains for more than 40 minutes following drug injection. Augmenting cardiac contractile function by δ-opioid receptor agonist has not been reported. δ-opioid agonists can augment heart performance and can be beneficial for clinical treatment of congestive heart failure.
# [5] = DPDPE 100 μg/kg i.v., rats n=3, LV short-axis echocardiography, FIG. 10
compound,measurement,setting,value
Cc1ccc(OCC(O)C(C)NC(C)C)c2c1CCC2 (stereo not drawn) [ICI-118551],effect on epinephrine-induced CGRP gene upregulation,"[1]; ICA cells, epinephrine in the presence of ICI-118551, FIG. 5",epinephrine failed to increase; also recorded: attenuated
same,effect on epinephrine-induced CGRP mRNA regulation,"[1]; ICI at 50 μmol/L, ICA cells, FIG. 5",completely eliminated
COc1cccc2c1C(=O)c1c(O)c3c(c(O)c1C2=O)C[C@@](O)(C(=O)CO)C[C@@H]3O[C@H]1C[C@H](N)[C@H](O)[C@H](C)O1 [doxorubicin],incidence of doxorubicin-induced cardiomyopathy,[2]; dose of 501-550 mg/m^2 body surface area,> 5%
same,incidence of doxorubicin-induced cardiomyopathy,[2]; dose over 550 mg/m^2,30%
CNC[C@H](O)c1ccc(O)c(O)c1 [epinephrine],increase in calcitonin-gene related peptide mRNA compared to untreated (UT) group,"[1]; ICA cells treated with epinephrine for 1 hr, FIG. 5",6 fold
same,duration of CGRP gene regulatory effect,[1]; following a brief 60-min epinephrine treatment,24 h
same,increase in calcitonin-gene related peptide mRNA (quantitative real-time PCR),[1],14 fold
same,effect on calcitonin-gene related peptide mRNA levels,[1],increases
CC(C)(C)NCC(O)c1cc(O)cc(O)c1 (stereo not drawn) [terbutaline],"effect on infarct size, drug delivered before LAD ligation / acute MI","[3]; i.v. infusion before LAD ligation, terbutaline 100 μg/kg, CGRP 30 ng/kg or combination, FIG. 9",no significant infarct-size-reduction
"(D-Pen^2, D-Pen^5)-enkephalin [DPDPE]",infarct size,[3]; FIG. 6,11±2%
same,reduction of infarct size compared to control group,"[3]; δ-opioid agonist i.v. before ischemia, FIG. 6",57%
same,increase in calcitonin-gene related peptide mRNA (quantitative real-time PCR),[1],2 fold
same,effect on calcitonin-gene related peptide mRNA levels,[1],modestly increases
same,increase in ejection fraction,[4]; [5],23%
same,increase in fractional shortening,[4]; [5],54%
same,duration of positive inotropic effect following drug injection,"[4]; i.v. DPDPE, rats",more than 40 minutes
"CGRP8-37: calcitonin-gene related peptide receptor antagonist (VTHRLAGLLSRSGGVVKNNFVPTNVGSKAF; ends and bridges not checked; UniProt P06881 90-119, looked up, fragment)",infarct size,[3]; FIG. 6,35±8%
same,increase in infarct size compared to saline control,"[3]; CGRP8-37 i.v. 30 min before onset of myocardial ischemia, FIG. 6",38%
